Experimental data published in EP0808325B1, “[…] […] SERIES FOR […] GABA RECEPTOR” (priority 1994, dated 1996).

Assays:
GR complex = assay: modulation of [35S]TBPS binding in rat cerebral cortex P2 homogenate; set-up: species or system Sprague-Dawley rats; IMAX: unit not given here
Summary of the method: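 Rat (male Sprague-Dawley) cortical P2 homogenate, 0.5 mg protein, in 50 mM Na/K phosphate pH 7.4, 200 mM NaCl, incubated 90 min at 25° C with 2 nM [35S]TBPS plus GABA and (+)bicuculline, compounds added in DMSO. Filter-bound radioactivity counted; nonspecific binding defined with […].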

maximal electroshock = maximal electroshock test; type: in vivo, mice; details: Mus musculus, ip, 20% hydroxypropyl-β-cyclodextrin in water
From the text: The anticonvulsant tests are similar to that described above. […]

mice = assay: elevated plus-maze; type: in vivo, N.I.H. Swiss-Webster mice
Summary of the method: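 Male Swiss-Webster mice (15-20 g), dosed once with drug or vehicle, were placed on an elevated plus-maze 10 min post-injection for 5 min. Open-arm entries and open-arm time recorded, each as a percentage of total arm entries or time; center time excluded.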

rats = assay: Geller-Seifter conflict test; type: in vivo, Sprague-Dawley rats
From the text: This animal model of human anxiety utilizes a conditioned state of conflict in rats to ascertain the anxiolytic properties of drugs. Rats are conditioned to bar press for positive reinforcement under two schedules of behavior (Geller and Seifter, Psychopharmacologia 1:482-492 (1960)). The first includes bar pressing under a […] schedule without punishment. The second component is a fixed ratio schedule with each bar press resulting in a positive reinforcement and a punishment. The punished component produces a state of conflict within the animal. […] An anxiolytic response would increase the punished responding without affecting the unpunished responding.
Male albino Sprague-Dawley rats (Charles River Labs, Wilmington, MA) weighing 250-300 g were used for conflict experiments and were kept on a restricted diet of Purina Lab Chow food pellets with water available at all times to maintain body weight at 85% of their free-feeding young adult levels. Rats were housed individually under a 12-hour light-dark cycle with lights on from 0700-1900.
The anti-anxiety (punishment-lessening) and response depressant effects of […] and […] were measured in rats by the conflict test of Geller and Seifter (1960). In this 63-min test, hungry rats perform a lever-press response to obtain a sweetened milk reward. The reinforcement schedule consists of punishment and nonpunishment components, alternating approximately every 15 min. Rats were trained in test chambers (Coulbourn instruments) with a lever mounted in one wall, a small dipper that delivered the 0.1-mL milk reward (1 part Eagle condensed : milk 2 parts water), and a metal grid floor through which the foot-shock punishment was administered. A DEC PDP 11/73 minicomputer running SKED (State Systems) was used for programming and recording.
Rates initially learned to respond on a continuous reinforcement schedule and progressed rapidly to 30-sec, 1-min, and 2-min variable interval (VI) schedules. On the continuous reinforcement schedule, rats received milk reward following every lever press; on the VI schedules, milk rewards were available at infrequent and variable intervals, eventually at an average of once every 2 min. Four 3-min "conflict" periods were then introduced on the unpunished VI baseline; the first started after 3 min of VI performance and the others were alternated between 12-min periods of VI responding. During conflict periods, which were signalled by the presentation of a light and a tone, the continuous reinforcement schedule was again in force and each lever press delivered both a milk reward and a brief ([…]) foot-shock punishment. Shock intensity was 0.2 mA initially, and.was increased daily in increments of 0.02 mA in order to gradually suppress lever pressing to 5 responses or less per conflict period. This training took 4-6 weeks, after which stable low rates of response were observed during conflict periods and stable high rates in the nonpunishment periods. Drug-induced increases in the rate of punished responses were taken as an index of antianxiety activity, while decreases in the rate of unpunished responses were taken as an index of response depression or sedation.

[1] = conflict test, subcutaneous administration

CC(=O)[C@H]1CC[C@H]2[C@@H]3CC[C@H]4C[C@H](O)CC[C@]4(C)[C@H]3CC[C@]12C [3α-hydroxy-5α-pregnan-20-one, reference compound]
IC50 (GR complex; concentration of compounds to inhibit 50% of control [35S]TBPS binding, 2 nM [35S]TBPS, 25°C, 90 minutes, no unit printed): 0.037 µM | IMAX (GR complex; maximum inhibition of [35S]TBPS binding, I* = Inactive): 95 | ED50 (maximal electroshock): 28.6 mg/kg | time spent on the open-arms (mice; 10 mg/kg (p ≤ 0.01)): significant increases | entries into the open-arms (mice; 20 mg/kg (p ≤ 0.05)): significant increase | % Control (mice; IP, 50% hpbcd, 20 mg/kg): 143.7% | dose at which the peak effect was observed (rats; [1]): 4.4 mg/kg | rate of punished responses (rats; [1]): large increases | Geller/Seifter (% of control) (rats; sc, 50% hpbcd, 5 mg/kg): 471.8 % of control
